Where a name gives a salt, the structure may show the parent alone.

One data set deals with PDE IV, HL60 cells. Description: Isolated enzyme, inhibition of PDE IV from HL60 cells. Type of data set: biochemical. Conditions: 0.1 μM [3H]-cAMP, pH 7.5, 30° C.; "Ki PDEIV HL60 at 1 μM"; read-out: approximate Ki value (PDE IV HL60). As for the experimental part: 1. Isolated Enzyme The potency and selectivity of the compounds of the invention was determined using a battery of distinct PDE isoenzymes as follows: iv. PDE IV, HL60 cells. The enzymes were purified to kinetic homogeneity using standard chromatographic techniques. Phosphodiesterase activity was assayed as follows. The reaction was conducted in 150 μl of standard mixture containing (final concentrations): 50 mM TES-NaOH buffer (pH 7.5), 10 mM MgCl2, 0.1 μM [^3 H]-cAMP and vehicle or various concentrations of the test compounds. The reaction was initiated by addition of enzyme and conducted at 30° C. for between 5 to 30 mins. […] An aliquot of the sample was then applied to a column of neutral alumina and the […] eluted with 10 ml 0.1 TES-NaOH buffer (pH8). […] Recovery of [3H]-5'AMP was determined using the [^14 C]-5'AMP and all assays were conducted in the linear range of the reaction.

In a further data set the test system is right atrial muscle. Particulars: reference substances, general statement; cited from earlier work.
The subject of another data set is papillary muscle. Conditions: reference substances, general statement; cited from earlier work.
The conditions of data set [1]: used in asthma as a bronchodilator; cited from earlier work.

Take `COc1ccc(-c2cncc3ccccc23)cc1OC1CCCC1` [Example 2, 4-(3-Cyclopentyloxy-4-methoxyphenyl)isoquinoline]: the Ki in the data set on PDE IV, HL60 cells was about 180 nM. On to `COc1ccc(-c2cccnc2)cc1OC1CCCC1` [Example 4, 3-(3-Cyclopentyloxy-4-methoxyphenyl)pyridine hydrochloride], for which the Ki with PDE IV, HL60 cells is about 270 nM. Consider `COc1ccc(-c2cccc([N+](=O)[O-])c2)cc1OC1CCCC1` [Example 7, 2-Cyclopentyloxy-4-(3-nitrophenyl)anisole], for which, in the data set with PDE IV, HL60 cells, the Ki is about 250 nM. For the compound `Cc1[nH]c(=O)c(C#N)cc1-c1ccncc1` [milrinone], in the data set with right atrial muscle, the “direct chronotropic effect (reference PDE inhibitors)” value was “positive chronotropic and inotropic effects”. In the data set on papillary muscle, the “direct inotropic effect (reference PDE inhibitors)” value is “positive chronotropic and inotropic effects”. As to `COc1ccc(C2CNC(=O)C2)cc1OC1CCCC1` (centres unmarked) [rolipram], the “direct chronotropic effect (reference PDE inhibitors)” value in the data set on right atrial muscle was “do not have any direct effects”. The “direct inotropic effect (reference PDE inhibitors)” value in the data set on papillary muscle is “do not have any direct effects”.

On to `Cn1c(=O)c2[nH]cnc2n(C)c1=O` [theophylline], for which the cardiovascular changes entry in data set [1] was “significant cardiovascular changes such as tachycardia”.
